The record followed here is US10259815B2, “Gabaergic ligands and their uses” (UWM Research Foundation, Inc., priority 2015, dated 2019).

Data set [1] has as its target T1, α1, β3, γ2 GABA A receptor (Homo sapiens, UniProt P14867+P18507).
T1 construct: host or cells: HEK-293, stably transfected
The data set can be described thus: FLIPR functional assay, α1 GABAA receptor subtype in HEK-293 cells. The class given is cell-based. An excerpt:
(§1) The FLIPR functional assay is used to determine the EC50 at the α1 and α3 GABAA receptor subtypes. A high EC50 for the α1 subtype would indicate a low chance of adverse effects, including sedation, ataxia, and muscle relaxation. A low α3 EC50 would indicate potential effectiveness as an anxiolytic, antihyperalgesic, and likely an anticonvulsant. See, for example, Liu et al. (Assay. Drug. Dev. Technol. 2008, 6, 781-6) and Joesch et al. (J. Biomol. Screen. 2008, 13, 218-28).
(§2) Compounds tested were synthesized internally and solubilized in DMSO at a 10 mM concentration. GABA was purchase from Sigma (#A2129) and prepared at 100 mM in water.
(§3) HEK-293 cells were stably transfected with the α1, β3, γ2 GABA A receptor subunits (GenBank accession numbers NM_000806.3, NM_000814.5, and NM_198904.1, respectively) or α3, β3, γ2 (NM_000808 for α3) where obtained from ChanTest Co. (Catalog # CT6216 and CT6218, respectively).
(§4) Cells were cultivated in Dulbeco's Modified Eagle's Medium (DMEM, Sigma D5796) supplemented with 10% Fetal Bovine Serum (FBS, Gibco 16000), 0.5 mg/mL Geneticin (Gibco), 0.04 mg/mL Hygromycin B (Gibco), 0.1 mg/mL Zeocin (Gibco) and 20 mM HEPES (Sigma). Cells were grown at 37° C. in a humidified atmosphere of 5% CO2. In the experiments described here frozen cells were used. For this purpose, cells were gown and maintained under confluency during 2-3 weeks and then frozen down at different cell densities using Recovery™ Cell Culture Freezing Medium (Gibco).
(§5) 18 hours prior to the experiment, cells were quickly thawed at 37° C. and seeded on Poly-D-Lys 384 plates (Corning 356663) at a density of 25,000 cells/well and in 25 μL of complete cell medium as described above.
(§6) Membrane potential changes induced by the flux of ions through the receptor were measured as relative fluorescence units (RFU) using the Fluorometric Imaging Plate Reader (FLIPR Tetra®, Molecular Devices) and the FLIPR Membrane Potential Blue Assay kit (Molecular Devices). Prior to the addition of the compounds the medium was removed and cells were loaded with 20 μL of dye prepared in assay buffer composed of Hank's Balanced Salt Solution (HBSS with Ca^+2 and Mg^+2; Gibco 14025) with 20 mM Hepes. After 1 hour of incubation at room temperature (RT), the plate was placed into the FLIPR instrument and experiments were run adding first 10 μL from the 1st addition plate (compound plate) and after a 3 minutes incubation adding 20 μL of the 2nd addition or agonist plate. The response to this last GABA addition was monitored for another 3 minutes. […]
(§7) Data Analysis. The difference between the maximum and the minimum (Max-Min) fluorescence reached during the first addition or read interval and the second read interval were used for data analysis (agonist and potentiation, respectively). […]

For data set [2], the target named is T2, α3, β3, γ2 GABA A receptor (Homo sapiens, UniProt P18507+P34903).
T2 construct: host or cells: HEK-293, stably transfected
The data set can be described thus: FLIPR functional assay, α3 GABAA receptor subtype in HEK-293 cells. It is filed as cell-based. The conditions noted are these: α3 Binding EC50, FLIPR membrane potential, potentiation of GABA EC20.
From the text: as §1, §2, §3, §4, §5, §6, §7

The nature of data set [3]: Liver microsomal stability, human. The class given is in vitro ADME. The conditions noted are these: 37° C., 4 μM compound, 30 minutes. How it is done:
(§8) In vitro metabolism studies were done in mouse, rat, human, and dogs cells (TABLE 2).
(§9) In vitro liver microsomal studies were completed to measure the stability of the compounds against degradation in various species' liver microsomes.
(§10) Compound was incubated in hepatic microsomes over a 30-minute incubation period at 37° C. Incubations both with and without NADPH (2 mM) were performed in a 96-well plate format. The reaction was initiated with the addition of substrate and was terminated by protein precipitation. All incubations were performed using a final substrate concentration of 4 μM in 50 mM sodium phosphate buffer, pH 7.4. The final organic solvent content was 0.5% acetonitrile and 0.02% DMSO. The amount of enzyme present was fixed at 1.11 mg/mL protein irrespective of the species of microsomes used. Samples were analyzed by LC/MS-MS to determine the percent loss in the NAPDH incubations relative to the NADPH free incubations.
(Microsomes from liver hold many membrane-bound enzymes, among them those of drug oxidation.)

Data set [4] in a line: Liver microsomal stability, dog. It is filed as in vitro ADME. The conditions noted are these: 37° C., 4 μM compound, 30 minutes. How it is done: as §8, §9, §10
Data set [5] is described as follows: Liver microsomal stability, mouse. It is filed as in vitro ADME. The note with it: 37° C., 4 μM compound, 30 minutes. On the procedure: as §8, §9, §10
Data set [6] in a line: Liver microsomal stability, rat. The class given is in vitro ADME. The conditions noted are these: 37° C., 4 μM compound, 30 minutes. On the procedure:
as §8, §9, §10

In data set [7] the test system is Male NIH Swiss mice. As to the kind of experiment: Rotorod assay (ataxia). It is filed as in vivo. The note with it: 30 mg/kg i.p., 30 minutes prior, 4 r.p.m., two minutes. How it is done:
Male NIH Swiss mice (n=10) were dosed i.p. with vehicle (1% carboxymethyl cellulose) or one of the test compounds (10 or 30 mg/kg) 30 minutes prior to being tested on the rotorod. Mice were placed on a rod for two minutes at 4 revolutions per minute. […] Mice that fell twice failed the testing.
The rotorod assay (FIG. 5) is used to determine the ataxic effects, generally stemming from the α1 subtype, that compounds have in test subjects. Mice are trained to run on a slow, rotating cylinder for two minutes, and failure to stay on the rod may be due to ataxia. […] Each set of compounds were tested against a vehicle.
Male NIH Swiss mice (n=10/group) were trained on a rotorod (Ugo Basile 7650) at 4 r.p.m. for two minutes per training session prior to testing. On test day, mice were dosed i.p. with either vehicle (1% carboxymethyl cellulose) or one of the test compounds (10 or 30 mg/kg) 30 minutes prior to testing.

The subject of data set [8] is Sprague Dawley male rats. The data set can be described thus: Mechanical hyperalgesia (von Frey) in CFA-induced inflammatory pain rat model. The class given is in vivo. How it is done:
Raw data (paw withdrawal threshold, expressed in g of von Frey filament) was converted to a maximal possible effect value according the following equation: % MPE=[(test threshold(g)−control threshold(g)/(pre-CFA threshold−control threshold)]×100.
Complete Freund's adjuvant (CFA) contains Mycobacterium butyricum, inducing inflammation and an increase in paw thickness. 0.1 mL of CFA was injected in the right hind paw of Sprague Dawley male rats under isoflurane anaesthesia.
Mechanical hyperalgesia. Mechanical hyperalgesia was measured 3 days after CFA treatment. Rats (n=6) were placed in elevated boxes with a mesh floor. Von Frey filaments (expressed in g) were applied perpendicularly to the hindpaws, starting with the lowest filament (1.4 g) then increased until hindpaw withdrawal was observed. After each measurement, rats received the next dose of drug (every 20 min) until the maximum threshold (26 g) was observed. For the antagonist study, rats were pretreated with the benzodiazepine site antagonist flumazenil (10 min) and then received the next dose of drug (every 20 min) until the pre-CFA threshold was observed.
Drugs. The following drugs were used: HZ166, KRM-II-18B, and KRM-II-81, and were dissolved in a mixture containing 20% Dimethyl sulfoxide (DMSO), 10% Emulphor-620 (Rhodia Inc.), and 70% of 0.9% saline. Flumazenil (purchased from Cayman Chemical Company, MI) was dissolved in a mixture containing 10% ethanol, 40% propylene glycol, and 50% sterile water. Midazolam (Akorn, Inc.) was dissolved in 0.9% saline. Doses were expressed as the weight of the drug in milligrams per kilogram of body weight and drugs were administered intraperitoneally.

Data set [9] relates to Male Sprague-Dawley rats. As to the kind of experiment: von Frey filament test in spinal nerve ligated (SNL) rats. It is filed as in vivo. On the procedure:
FIG. 11 is a graph of time versus withdrawal threshold for KRM-II-81, Gabapentin, and vehicle, showing the effect of KRM-II-81 on antihyperalgesia in the von Frey filament assay. Male Sprague-Dawley rats (n=5) were dosed i.p. either vehicle, KRM-II-81 (30 mg/kg), or gabapentin (50 mg/kg) and tested in the von Frey filament assay after undergoing SNL 90 days prior. Results were analyzed using ANOVA (Dunnett's test: *P<0.05).
The von Frey filament test is used to test for antihyperalgesia, or an increased sensitivity to pain. […] The von Frey filaments are used to apply pressure to the forelimbs of test subjects at set amounts. When pressure becomes too great, the forelimb is withdrawn and the amount of force applied recorded. The spinal nerve ligation induced hyperalgesia, reducing the amount of force a limb can take before being withdrawn.
Test compounds were given to test the effectiveness of combating the hyperalgesic effect of SNL. Male Sprague-Dawley rats went through SNL at least 90 days prior to the von Frey testing. Rats were first tested without given an injection to determine a baseline. Following baseline establishment, rats (n=5 for all groups) were dosed i.p. with vehicle (1% carboxymethyl cellulose), KRM-II-81 (30 mg/kg), or gabapentin (50 mg/kg). Subjects were then tested every hour for four hours to determine the antihyperalgesic effect of the test compounds. For testing, pressure using von Frey filaments was applied to the forelimb of the rat. Pressure was increased until the limb was withdrawn, and the amount of pressure was recorded.

T2 sequence (P34903 29-492): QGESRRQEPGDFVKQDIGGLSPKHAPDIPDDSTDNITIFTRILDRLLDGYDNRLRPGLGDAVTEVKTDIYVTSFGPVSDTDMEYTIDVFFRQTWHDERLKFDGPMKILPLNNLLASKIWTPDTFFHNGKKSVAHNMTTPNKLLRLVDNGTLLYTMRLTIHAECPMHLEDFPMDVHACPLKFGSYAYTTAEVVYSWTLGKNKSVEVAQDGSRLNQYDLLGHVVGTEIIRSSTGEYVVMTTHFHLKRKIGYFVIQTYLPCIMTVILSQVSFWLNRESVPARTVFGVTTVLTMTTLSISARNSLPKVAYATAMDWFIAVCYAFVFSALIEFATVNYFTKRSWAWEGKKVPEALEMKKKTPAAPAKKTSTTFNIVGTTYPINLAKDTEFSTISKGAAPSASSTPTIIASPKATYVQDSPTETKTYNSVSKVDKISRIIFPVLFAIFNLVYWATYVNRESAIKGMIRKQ
T2 sequence (P28472 26-473 partner): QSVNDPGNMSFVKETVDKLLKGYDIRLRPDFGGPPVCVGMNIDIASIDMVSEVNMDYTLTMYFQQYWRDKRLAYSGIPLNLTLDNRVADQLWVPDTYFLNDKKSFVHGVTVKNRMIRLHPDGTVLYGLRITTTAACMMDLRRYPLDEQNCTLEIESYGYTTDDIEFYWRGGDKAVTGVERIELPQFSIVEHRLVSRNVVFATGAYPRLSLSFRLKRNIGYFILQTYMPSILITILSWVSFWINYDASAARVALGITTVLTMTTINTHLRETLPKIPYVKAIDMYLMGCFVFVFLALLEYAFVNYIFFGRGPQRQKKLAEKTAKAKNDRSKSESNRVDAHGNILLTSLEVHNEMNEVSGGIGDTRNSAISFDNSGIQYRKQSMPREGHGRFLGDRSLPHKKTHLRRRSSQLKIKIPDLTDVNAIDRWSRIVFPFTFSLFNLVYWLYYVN
T2 sequence (P18507 40-475): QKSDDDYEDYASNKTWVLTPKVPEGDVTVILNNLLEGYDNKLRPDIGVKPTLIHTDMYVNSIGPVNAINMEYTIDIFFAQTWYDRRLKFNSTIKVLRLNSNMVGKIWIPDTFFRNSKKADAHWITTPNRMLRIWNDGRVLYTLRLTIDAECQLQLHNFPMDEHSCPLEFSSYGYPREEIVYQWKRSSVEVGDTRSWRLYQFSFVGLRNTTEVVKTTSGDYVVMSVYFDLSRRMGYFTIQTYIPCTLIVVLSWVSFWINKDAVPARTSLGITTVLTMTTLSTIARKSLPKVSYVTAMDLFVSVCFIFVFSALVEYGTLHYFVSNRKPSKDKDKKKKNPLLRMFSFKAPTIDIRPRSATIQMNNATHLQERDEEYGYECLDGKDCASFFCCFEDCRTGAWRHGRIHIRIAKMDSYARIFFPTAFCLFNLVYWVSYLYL
T1 sequence (P14867 28-456): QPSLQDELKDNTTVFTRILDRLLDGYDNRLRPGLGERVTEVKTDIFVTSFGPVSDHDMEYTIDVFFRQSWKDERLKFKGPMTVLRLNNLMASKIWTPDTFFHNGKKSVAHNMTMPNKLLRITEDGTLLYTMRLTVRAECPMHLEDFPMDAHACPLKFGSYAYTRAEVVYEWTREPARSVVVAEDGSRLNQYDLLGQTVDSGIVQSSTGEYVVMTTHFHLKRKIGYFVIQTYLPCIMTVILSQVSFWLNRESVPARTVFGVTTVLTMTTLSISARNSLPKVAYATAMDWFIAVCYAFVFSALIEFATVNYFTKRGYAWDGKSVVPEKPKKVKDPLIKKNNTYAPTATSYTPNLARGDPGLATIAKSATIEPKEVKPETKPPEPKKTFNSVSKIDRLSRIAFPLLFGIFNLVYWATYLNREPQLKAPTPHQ
T1 sequence (P28472 26-473 partner): as the sequence (P28472 26-473 partner) above
T1 sequence (P18507 40-475): as the sequence (P18507 40-475) above

As usually defined, the melting point is the temperature, or range, at which the solid turns liquid. For the molecule `Brc1ccc2c(c1)C(c1ccccc1)=NCc1c(-c3cnco3)ncn1-2`, the melting point lay within 225 to 227 °C.

For the molecule `Cc1ncoc1-c1ncn2c1CN=C(c1ccccn1)c1cc(Br)ccc1-2`, the melting point was in the range of 228 to 230 °C. On the same count and under the same terms, then `Cc1ncoc1-c1ncn2c1CN=C(c1ccccc1)c1cc(Br)ccc1-2`, with 236 to 238 °C; and `Cc1ncoc1-c1ncn2c1CN=C(c1ccccc1F)c1cc(Br)ccc1-2`, with 138 to 140 °C; and `C[Si](C)(C)C#Cc1ccc2c(c1)C(c1ccccn1)=NCc1c(-c3cnco3)ncn1-2`, with 208 to 210 °C. The same measure, in the same setting: then `Cc1ncoc1-c1ncn2c1CN=C(c1ccccc1)c1cc(C#C[Si](C)(C)C)ccc1-2`, with 130 to 132 °C. Molecule `Cc1ncoc1-c1ncn2c1CN=C(c1ccccc1F)c1cc(C#C[Si](C)(C)C)ccc1-2` returned a melting point of 209 to 211 °C. Still for that read-out and setting: then `C#Cc1ccc2c(c1)C(c1ccccn1)=NCc1c(-c3ocnc3C)ncn1-2`, with 209 to 211 °C; and `C#Cc1ccc2c(c1)C(c1ccccc1)=NCc1c(-c3ocnc3C)ncn1-2`, with 228 to 230 °C; and `C#Cc1ccc2c(c1)C(c1ccccc1F)=NCc1c(-c3ocnc3C)ncn1-2`, with 145 to 147 °C. In general, EC50 refers to the concentration giving half of the maximal effect. With `C#Cc1ccc2c(c1)C(c1ccccc1)=NCc1c(-c3cnco3)ncn1-2` [KRM-II-82, 5-(8-Ethynyl-6-phenyl-4H-benzo[f]imidazo[1,5-a][1,4]diazepin-3-yl)oxazole], the results for the concentration giving a half-maximal response (EC50) in [1] and in [2] were > 20 µM and 0.0321 µM, respectively. In [3], the “Human Liver microsome stability (reported in % remaining)” value worked out at 74 % remaining. Also, the “Dog Liver microsome stability (reported in % remaining)” value in data set [4] was found to be 86 % remaining. The “Mouse Liver microsome stability (reported in % remaining)” value in data set [5] turned out to be 73 % remaining. Besides, the “Rat Liver microsome stability (reported in % remaining)” value in [6] worked out at 72 % remaining. Further, in data set [7], the “rotorod performance at 30 mg/kg” value is “failed multiple times”. In turn, `Fc1ccccc1C1=NCc2c(-c3cnco3)ncn2-c2ccc(Br)cc21` [SH-I-085, 5-(8-Bromo-6-(2-fluorophenyl)-4H-benzo[f]imidazo[1,5-a][1,4]diazepin-3-yl)oxazole] registered a melting point of 190 to 192 °C. Moreover, the EC50 in [1] was > 20 µM. Also, in data set [2], the EC50 turned out to be 0.0249 µM. Besides, the “Human Liver microsome stability (reported in % remaining)” value in data set [3] is reported as 62 % remaining. In [4], the “Dog Liver microsome stability (reported in % remaining)” value is listed as 77 % remaining. The “Mouse Liver microsome stability (reported in % remaining)” value in data set [5] is 67 % remaining. In addition, the “Rat Liver microsome stability (reported in % remaining)” value in data set [6] stood at 61 % remaining.

Consider `CCOC(=O)c1ncn2c1CN(C)C(=O)c1cc(F)ccc1-2` [flumazenil, reference compound], for which, in data set [8] (flumazenil pretreatment 10 min), the “shift of PAM dose-effect curves by antagonist pretreatment” value is reported as “shifted the dose-effect curves of PAMs rightward”.

On to `NCC1(CC(=O)O)CCCCC1` [gabapentin, reference compound], for which the “antihyperalgesic activity, von Frey after SNL” value in data set [9] (KRM-II-81 30 mg/kg, gabapentin 50 mg/kg i.p.) is “active as antihyperalgesics”. The “pain threshold (force before removing paw)” value in [9] (from 1-2 hours, vehicle ˜5 g) was ~12 g. In the case of `Cc1ncc2n1-c1ccc(Cl)cc1C(c1ccccc1F)=NC2` [midazolam, reference compound], in [8] (cumulative i.p. dosing, 3 days after CFA), the “mechanical hyperalgesia in CFA-induced inflammatory pain” value is “dose-dependently attenuated mechanical hyperalgesia”.
